Data reported in PMC11952222, “Development and comparison of single FLT3-inhibitors to dual FLT3/TAF1-inhibitors as an anti-leukemic approach” (PLOS One, 2025).

How the values were obtained:
Assay in all cases: Eurofins/DiscoverX cell free kinase assay, percent control
Format in all cases: binding
KIT = target: T1, KIT (Homo sapiens, UniProt P10721); settings: for per_control_1000nM KIT: 1000 nM compound; for per_control_10000nM KIT: 10000 nM compound
T1 construct: purchased Eurofins/DiscoverX
Protocol: (§1) The 3i-compounds underwent activity testing against a panel of 32 bromodomains using the Eurofins/DiscoverX bromoMAX assay, with specific focus on TAF1(2) bromodomain assessed by the KdELECT assay. In a similar manner, kinase activity was evaluated using a panel of 97 kinase proteins using the Eurofins/DiscoverX scanELECT and KdELECT assays, with specific focus on FLT3 protein. An 11-point 3-fold serial dilution of each test compound was prepared in 100% DMSO at 100x final test concentration and subsequently diluted to final concentration (DMSO 1%). […] Percent control was calculated using the following formula: ((test compound signal – positive control signal)/ (negative control signal – positive control signal)) × 100.
(§2) Fig 2 Results of 3i-compound series at concentrations of 1 µM and 10 µM in a cell free Eurofins/DiscoverX assay for kinase and bromodomain proteins. (A) Single-targeted compounds with tyrosine kinase activity but without bromodomain activity. (B) Dual-targeted compounds with both tyrosine kinase and bromodomain activity.

FLT3(ITD) = settings: for per_control_1000nM FLT3(ITD): 1000 nM compound; for per_control_10000nM FLT3(ITD): 10000 nM compound
Protocol: as §1, §2

FLT3(ITD,F691L) = settings: for per_control_1000nM FLT3(ITD,F691L): 1000 nM compound; for per_control_10000nM FLT3(ITD,F691L): 10000 nM compound
Protocol: as §1, §2

FLT3(ITD,D835V) = settings: for per_control_1000nM FLT3(ITD,D835V): 1000 nM compound; for per_control_10000nM FLT3(ITD,D835V): 10000 nM compound
Protocol: as §1, §2

FLT3_autoinhibited = target: T2, FLT3_autoinhibited (Homo sapiens, UniProt P36888); settings: for per_control_1000nM FLT3_autoinhibited: 1000 nM compound; for per_control_10000nM FLT3_autoinhibited: 10000 nM compound
T2 construct: purchased Eurofins/DiscoverX
T2 sequence (P36888 564-993 limits assumed): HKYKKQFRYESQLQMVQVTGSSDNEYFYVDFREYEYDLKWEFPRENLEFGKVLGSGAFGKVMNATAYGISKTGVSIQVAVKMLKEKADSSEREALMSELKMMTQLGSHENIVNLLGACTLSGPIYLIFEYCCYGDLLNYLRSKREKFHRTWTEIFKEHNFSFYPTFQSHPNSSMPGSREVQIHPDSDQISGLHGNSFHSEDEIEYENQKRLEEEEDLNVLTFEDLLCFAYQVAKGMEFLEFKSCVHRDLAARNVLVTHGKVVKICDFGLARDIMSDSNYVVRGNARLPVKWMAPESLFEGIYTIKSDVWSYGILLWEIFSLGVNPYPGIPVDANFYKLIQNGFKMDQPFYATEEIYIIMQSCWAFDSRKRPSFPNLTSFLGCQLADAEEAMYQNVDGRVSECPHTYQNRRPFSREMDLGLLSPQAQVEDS
Protocol: as §1, §2

FLT3(D835V) = target: T3, FLT3(D835V) (Homo sapiens, UniProt P36888, D835V); settings: for per_control_1000nM FLT3(D835V): 1000 nM compound; for per_control_10000nM FLT3(D835V): 10000 nM compound
T3 construct: purchased Eurofins/DiscoverX
T3 sequence (P36888 27-993 D835V): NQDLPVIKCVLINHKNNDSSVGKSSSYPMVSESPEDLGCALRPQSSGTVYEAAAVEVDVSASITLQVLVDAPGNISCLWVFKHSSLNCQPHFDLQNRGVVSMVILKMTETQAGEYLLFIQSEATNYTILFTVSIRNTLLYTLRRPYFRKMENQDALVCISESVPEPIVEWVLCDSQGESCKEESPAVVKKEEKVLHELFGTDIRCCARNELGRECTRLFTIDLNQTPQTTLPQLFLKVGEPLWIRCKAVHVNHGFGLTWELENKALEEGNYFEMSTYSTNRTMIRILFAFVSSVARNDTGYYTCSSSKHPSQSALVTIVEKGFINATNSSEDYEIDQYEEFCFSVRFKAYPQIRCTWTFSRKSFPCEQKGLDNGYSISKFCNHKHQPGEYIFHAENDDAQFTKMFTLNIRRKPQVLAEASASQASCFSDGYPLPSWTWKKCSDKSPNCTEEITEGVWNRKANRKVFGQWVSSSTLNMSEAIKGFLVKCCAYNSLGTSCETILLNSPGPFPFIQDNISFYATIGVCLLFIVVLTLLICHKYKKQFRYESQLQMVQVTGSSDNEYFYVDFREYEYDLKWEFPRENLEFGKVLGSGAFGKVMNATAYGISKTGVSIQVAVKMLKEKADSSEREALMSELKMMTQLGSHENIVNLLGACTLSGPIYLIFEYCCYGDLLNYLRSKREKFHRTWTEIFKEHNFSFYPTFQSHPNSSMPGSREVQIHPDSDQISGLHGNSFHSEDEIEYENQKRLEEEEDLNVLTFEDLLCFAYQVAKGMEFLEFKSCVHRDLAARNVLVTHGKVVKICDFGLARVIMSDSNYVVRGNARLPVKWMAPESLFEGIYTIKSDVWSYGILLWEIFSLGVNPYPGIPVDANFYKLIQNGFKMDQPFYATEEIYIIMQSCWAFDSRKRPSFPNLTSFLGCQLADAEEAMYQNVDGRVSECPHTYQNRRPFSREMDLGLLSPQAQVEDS
Protocol: as §1, §2

T1 sequence (P10721 26-976): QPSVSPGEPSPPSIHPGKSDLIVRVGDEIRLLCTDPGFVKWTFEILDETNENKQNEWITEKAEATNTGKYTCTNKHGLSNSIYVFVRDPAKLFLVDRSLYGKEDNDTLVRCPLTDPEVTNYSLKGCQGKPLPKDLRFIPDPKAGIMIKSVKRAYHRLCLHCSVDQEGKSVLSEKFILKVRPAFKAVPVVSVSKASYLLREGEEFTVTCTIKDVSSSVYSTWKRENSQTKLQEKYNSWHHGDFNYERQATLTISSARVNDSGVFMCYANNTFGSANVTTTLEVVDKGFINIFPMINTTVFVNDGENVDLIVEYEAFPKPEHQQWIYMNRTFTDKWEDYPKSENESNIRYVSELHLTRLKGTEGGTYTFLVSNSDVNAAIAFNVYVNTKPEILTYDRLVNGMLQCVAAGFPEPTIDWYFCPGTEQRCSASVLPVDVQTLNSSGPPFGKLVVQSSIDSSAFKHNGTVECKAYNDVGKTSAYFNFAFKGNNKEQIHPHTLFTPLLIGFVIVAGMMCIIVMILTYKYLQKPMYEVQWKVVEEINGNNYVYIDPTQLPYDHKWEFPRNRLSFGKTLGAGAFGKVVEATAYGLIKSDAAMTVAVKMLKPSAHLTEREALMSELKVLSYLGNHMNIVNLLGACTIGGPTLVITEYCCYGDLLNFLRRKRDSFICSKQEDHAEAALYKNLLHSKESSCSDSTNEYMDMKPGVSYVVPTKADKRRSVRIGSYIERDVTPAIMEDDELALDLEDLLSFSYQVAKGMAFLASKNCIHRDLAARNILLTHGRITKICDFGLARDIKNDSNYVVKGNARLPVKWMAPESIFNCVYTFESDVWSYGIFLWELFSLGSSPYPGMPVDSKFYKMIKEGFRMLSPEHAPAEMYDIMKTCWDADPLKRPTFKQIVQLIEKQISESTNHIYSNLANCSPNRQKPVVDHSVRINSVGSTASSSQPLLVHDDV

| SMILES | per_control_1000nM KIT (KIT) [percent control] | per_control_10000nM KIT (KIT) [percent control] | per_control_1000nM FLT3(ITD) (FLT3(ITD)) [percent control] | per_control_10000nM FLT3(ITD) (FLT3(ITD)) [percent control] | per_control_1000nM FLT3(ITD,F691L) (FLT3(ITD,F691L)) [percent control] | per_control_10000nM FLT3(ITD,F691L) (FLT3(ITD,F691L)) [percent control] | per_control_1000nM FLT3(ITD,D835V) (FLT3(ITD,D835V)) [percent control] | per_control_10000nM FLT3(ITD,D835V) (FLT3(ITD,D835V)) [percent control] | per_control_1000nM FLT3_autoinhibited (FLT3_autoinhibited) [percent control] | per_control_10000nM FLT3_autoinhibited (FLT3_autoinhibited) [percent control] | per_control_1000nM FLT3(D835V) (FLT3(D835V)) [percent control] | per_control_10000nM FLT3(D835V) (FLT3(D835V)) [percent control] |
| --- | --- | --- | --- | --- | --- | --- | --- | --- | --- | --- | --- | --- |
| COc1ccc(-c2cc(NC(=O)c3ccc(C(C)(C)C)cc3)[nH]n2)cc1 [Compound 3i-1103] | 0 | 0 | 1.2 | 2.1 | 38 | 9.4 | 42 | 6 | 1.8 | 0.4 | 0.9 | 0 |
| Cc1cc(-c2cc(NC(=O)c3ccc(C(C)(C)C)cc3)[nH]n2)ccn1 [Compound 3i-1246, 4-(tert-butyl)-N-(3-(2-methylpyridin-4-yl)-1H-pyrazol-5-yl)benzamide] | 0 | 0 | 2.7 | 1.2 | 3.3 | 1.6 | 0.55 | 0.2 | 0 | 1 | 0.5 | 0.55 |
| CC(C)(C)c1ccc(C(=O)Nc2cc(-c3ccccc3)n[nH]2)cc1 [Compound 3i-1247, 4-(tert-butyl)-N-(3-phenyl-1H-pyrazol-5-yl)benzamide] | 0 | 0 | 3.2 | 12 | 9.7 | 0.1 | 11 | 0.3 | 1.1 | 0 | 2.5 | 0 |
| Cn1cc(-c2cc(NC(=O)c3ccc(C(C)(C)C)cc3)n[nH]2)ccc1=O [Compound 3i-1248, 4-(tert-butyl)-N-(5-(1-methyl-6-oxo-1,6-dihydropyridin-3-yl)-1H-pyrazol-3-yl)benzamide] | 8.2 | 0.1 | 0 | 12 | 29 | 1.9 | 5.3 | 0.15 | 63 | 12 | 1.3 | 0.7 |
